The target in assay [1] is Cat L (UniProt P07711). In words: Cathepsin enzyme inhibition assay (fluorogenic peptide substrate Z-Val-Val-Arg-AMC), Cathepsin L. In kind it is biochemical, human and mouse. The note with it: enzyme 1 nM, substrate 20 μM, pH 6.5; read-out: CatL IC50. In a few lines: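 Fluorogenic cleavage of Z-Val-Val-Arg-AMC (20 μM) by 1 nM Cat L was monitored at ex 360/em 465 nm for 20 min, the linear phase. The buffer was 100 mM potassium phosphate pH 6.5 with 5 mM EDTA and DTT. IC50 values were derived by standard methods, in μM.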

Assay [2] deals with Cathepsin S (UniProt P25774). Kind of assay: Cathepsin enzyme inhibition assay (fluorogenic peptide substrate Z-Val-Val-Arg-AMC), Cathepsin S. In kind it is biochemical, human and mouse. The note with it: enzyme 1 nM, substrate 20 μM, pH 6.5; read-out: CatS IC50. In a few lines:
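Compounds were combined with 1 nM human or mouse enzyme, and substrate then started the reaction. The buffer was potassium phosphate (100 mM, pH 6.5) containing EDTA-Na 5 mM, Triton X-100 0.001% and […] 5 mM.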

Broadly, the IC50 is the point on the concentration scale where inhibition reaches its midpoint.

Turning to `N#CCNC(=O)[C@@H]1C[C@@H](S(=O)(=O)c2ccccc2Cl)CN1C(=O)c1ccccc1` [Example 58, (2S,4R)-1-Benzoyl-4-(2-chloro-benzenesulfonyl)-pyrrolidine-2-carboxylic acid cyanomethyl-amide], the IC50 in assay [1] is 27400 nM; in assay [2], 1.6 nM.

For `N#CCNC(=O)[C@@H]1C[C@@H](S(=O)(=O)c2ccccc2Cl)CN1C(=O)c1ccc(F)cc1` [Example 59, (2S,4R)-4-(2-Chloro-benzenesulfonyl)-1-(4-fluoro-benzoyl)-pyrrolidine-2-carboxylic acid cyanomethyl-amide], the IC50 in assay [1] is 12200 nM; in assay [2] it was 1.8 nM.

Regarding `N#CCNC(=O)[C@@H]1C[C@@H](S(=O)(=O)c2ccccc2Cl)CN1C(=O)C1CCCCC1` [Example 60, (2S,4R)-4-(2-Chloro-benzenesulfonyl)-1-cyclohexanecarbonyl-pyrrolidine-2-carboxylic acid cyanomethyl-amide], the values for the IC50 in assay [1] and in assay [2] were 12800 nM and 0.5 nM, respectively.

With `CCC(=O)N1C[C@H](S(=O)(=O)c2ccccc2Cl)C[C@H]1C(=O)NCC#N` [Example 61, (2S,4R)-4-(2-Chloro-benzenesulfonyl)-1-propionyl-pyrrolidine-2-carboxylic acid cyanomethyl-amide], the IC50 is 22500 nM in assay [1] and 1.2 nM in assay [2].

On to `COCC(=O)N1C[C@H](S(=O)(=O)c2ccccc2Cl)C[C@H]1C(=O)NCC#N` [Example 62, (2S,4R)-4-(2-Chloro-benzenesulfonyl)-1-(2-methoxy-acetyl)-pyrrolidine-2-carboxylic acid cyanomethyl-amide], for which the IC50 was 21000 nM in assay [1] and 1.2 nM in assay [2].

Take `N#CCNC(=O)[C@@H]1C[C@@H](S(=O)(=O)c2ccccc2Cl)CN1C1COC1` [Example 63, (2S,4R)-4-(2-Chloro-benzenesulfonyl)-1-oxetan-3-yl-pyrrolidine-2-carboxylic acid cyanomethyl-amide]: the IC50 in assay [1] was not below 25000 nM; in assay [2], 100 nM.

Regarding `N#CCNC(=O)[C@@H]1C[C@@H](S(=O)(=O)c2ccccc2Cl)CN1C1CCOCC1` [Example 64, (2S,4R)-4-(2-Chloro-benzenesulfonyl)-1-(tetrahydro-pyran-4-yl)-pyrrolidine-2-carboxylic acid cyanomethyl-amide], the IC50 is not below 25000 nM in assay [1] and 109 nM in assay [2].

For the compound `N#CCNC(=O)[C@@H]1C[C@@H](S(=O)(=O)c2ccccc2C(F)(F)F)CN1C(=O)c1ccc(F)cc1` [Example 65, (2S,4R)-1-(4-Fluoro-benzoyl)-4-(2-trifluoromethyl-benzenesulfonyl)-pyrrolidine-2-carboxylic acid cyanomethyl-amide], the IC50 is not below 25000 nM in assay [1] and 0.6 nM in assay [2].

With `Cc1ccc(C(=O)N2C[C@H](S(=O)(=O)c3ccccc3C(F)(F)F)C[C@H]2C(=O)NCC#N)cc1` [Example 66, (2S,4R)-1-(4-Methyl-benzoyl)-4-(2-trifluoromethyl-benzenesulfonyl)-pyrrolidine-2-carboxylic acid cyanomethyl-amide], the IC50 in assay [1] was not below 25000 nM; in assay [2], 0.6 nM.

Regarding `N#CCNC(=O)[C@@H]1C[C@@H](S(=O)(=O)c2ccccc2C(F)(F)F)CN1C(=O)C1CCCCC1` [Example 67, (2S,4R)-1-Cyclohexanecarbonyl-4-(2-trifluoromethyl-benzenesulfonyl)-pyrrolidine-2-carboxylic acid cyanomethyl-amide], the IC50 in assay [1] is not below 25000 nM; in assay [2] it was 0.2 nM.

As for `N#CCNC(=O)[C@@H]1C[C@@H](S(=O)(=O)c2ccccc2C(F)(F)F)CN1C(=O)C1CCOCC1` [Example 68, (2S,4R)-1-(Tetrahydro-pyran-4-carbonyl)-4-(2-trifluoromethyl-benzenesulfonyl)-pyrrolidine-2-carboxylic acid cyanomethyl-amide], the values for the IC50 in assay [1] and in assay [2] were not below 25000 nM and 0.3 nM, respectively.

With `N#CCNC(=O)[C@@H]1C[C@@H](S(=O)(=O)c2ccccc2C(F)(F)F)CN1C(=O)c1ccncc1` [Example 69, (2S,4R)-1-(Pyridine-4-carbonyl)-4-(2-trifluoromethyl-benzenesulfonyl)-pyrrolidine-2-carboxylic acid cyanomethyl-amide], the 50% inhibitory concentration (IC50) in assay [1] was not below 25000 nM; in assay [2], 0.4 nM.

For the compound `CN1CCC(C(=O)N2C[C@H](S(=O)(=O)c3ccccc3C(F)(F)F)C[C@H]2C(=O)NCC#N)CC1` [Example 70, (2S,4R)-1-(1-Methyl-piperidine-4-carbonyl)-4-(2-trifluoromethyl-benzenesulfonyl)-pyrrolidine-2-carboxylic acid cyanomethyl-amide formiate], the IC50 in assay [1] turned out to be 25200 nM; in assay [2] it was 1.6 nM.

Consider `N#CCNC(=O)[C@@H]1C[C@@H](S(=O)(=O)c2ccccc2C(F)(F)F)CN1C(=O)c1ccccc1` [Example 71, (2S,4R)-1-Benzoyl-4-(2-trifluoromethyl-benzenesulfonyl)-pyrrolidine-2-carboxylic acid cyanomethyl-amide], for which the IC50 in assay [1] was not below 25000 nM; in assay [2] it was 0.5 nM.

For the compound `N#CCNC(=O)[C@@H]1C[C@@H](S(=O)(=O)c2ccccc2C(F)(F)F)CN1C(=O)OC1CCCC1` [Example 72, (2S,4R)-2-(Cyanomethyl-carbamoyl)-4-(2-trifluoromethyl-benzenesulfonyl)-pyrrolidine-1-carboxylic acid Cyclopentyl Ester], the IC50 in assay [1] was not below 25000 nM; in assay [2], 0.8 nM.

Consider `N#CC1(NC(=O)[C@@H]2C[C@@H](S(=O)(=O)c3ccccc3)CN2C(=O)c2ccccc2)CC1` [Example 73, (2S,4R)-4-Benzenesulfonyl-1-benzoyl-pyrrolidine-2-carboxylic acid (1-cyano-cyclopropyl)-amide], for which the IC50 in assay [1] is not below 25000 nM; in assay [2] it was 12.7 nM.

In the case of `N#CC1(NC(=O)[C@@H]2C[C@@H](S(=O)(=O)c3ccccc3)CN2C(=O)C2CCOCC2)CC1` [Example 74, (2S,4R)-4-Benzenesulfonyl-1-(tetrahydro-pyran-4-carbonyl)-pyrrolidine-2-carboxylic acid (1-cyano-cyclopropyl)-amide], the IC50 was not below 25000 nM in assay [1] and 6.6 nM in assay [2].

Consider `N#CC1(NC(=O)[C@@H]2C[C@@H](S(=O)(=O)c3ccccc3Cl)CN2C(=O)c2ccccc2)CC1` [Example 75, (2S,4R)-1-Benzoyl-4-(2-chloro-benzenesulfonyl)-pyrrolidine-2-carboxylic acid (1-cyano-cyclopropyl)-amide], for which the IC50 in assay [1] was 6790 nM; in assay [2], 0.8 nM.

For the compound `N#CC1(NC(=O)[C@@H]2C[C@@H](S(=O)(=O)c3ccccc3Cl)CN2C(=O)c2ccc(F)cc2)CC1` [Example 76, (2S,4R)-4-(2-Chloro-benzenesulfonyl)-1-(4-fluoro-benzoyl)-pyrrolidine-2-carboxylic acid (1-cyano-cyclopropyl)-amide], the values for the IC50 in assay [1] and in assay [2] were 8800 nM and 1.4 nM, respectively.

Consider `N#CC1(NC(=O)[C@@H]2C[C@@H](S(=O)(=O)c3ccccc3Cl)CN2C(=O)C2CCCCC2)CC1` [Example 77, (2S,4R)-4-(2-Chloro-benzenesulfonyl)-1-cyclohexanecarbonyl-pyrrolidine-2-carboxylic acid (1-cyano-cyclopropyl)-amide], for which the IC50 in assay [1] stood at 8250 nM; in assay [2], 0.2 nM.
